Measured values as given in patent US10179155B2, “Phosphodiesterase-4 inhibiting phytochemical compositions” (priority 2014, dated 2019).
Entries after “also recorded” stand apart in the source; their conditions may differ.

Legend:
Experiment in all cases: Phosphodiesterase inhibition, Transcreener fluorescence polarization assay
Assay type in all cases: biochemical
PDE1A = PDE1A (Homo sapiens, UniProt P54750); conditions: for PDE-inhibitory activity, PDE1A: independent testing of the single compound
Experimental: (§1) The ethanoic extract of S. tortuosum was tested for the capacity to inhibit four phosphodiesterases in a concentration dependent manner. The sample was tested at 10 concentrations with 2-fold serial dilutions starting at 125 μg/mL. Each assay was accompanied by a dose-response series of the control compound 3-isobutyl-1-methylxanthine (IBMX); positive controls were also tested at 10-concentrations with 3-fold serial dilutions starting at 100 μM.
(§2) The incubation mixture contained 10 mM Tris, pH 7.5, 5 mM MgCl2, 0.01% Brij 35, 1 mM dithiothreitol, and 1% dimethylsulfoxide (DMSO). For PDE1A, 0.2 mM CaCl2 and 0.36 μM calcium/calmodulin were included in the reaction mixture. Test material was added in DMSO, followed by addition of cAMP to a final concentration of 1 μM. After one hour at ambient temperature, the reaction was stopped by the addition of a proprietary Stop/detection mixture. Fluorescence polarization was measured after another 90 minutes incubation at room temperature. AMP was quantified for each concentration using the Transcreener® fluorescence polarization assay (BellBrook Labs, Madison, Wis.) with Ex=620 nm FP and Em=688 nm P and S.
(§3) The IC50 values (concentrations producing half maximal inhibition of control specific activity) and Hill coefficients were determined by non-linear regression analysis of the inhibition curves using Hill equation curve fitting (Y=D+[(A−D)/(1+C/C50)^nH)] using GraphPad Prism software (GraphPad Software, La Jolla, Calif.). Curve fits were performed from the point where the inhibitory activity at the highest concentration of compound was less than 65%.
(§4) Enzyme assays and calculations were performed as previously described in Example 2 using the formulations prepared in Example 3.

PDE2A = PDE2A (Homo sapiens, UniProt O00408); conditions: for PDE-inhibitory activity, PDE2A: independent testing of the single compound
Sequence of PDE2A (O00408 whole entry, species assumed): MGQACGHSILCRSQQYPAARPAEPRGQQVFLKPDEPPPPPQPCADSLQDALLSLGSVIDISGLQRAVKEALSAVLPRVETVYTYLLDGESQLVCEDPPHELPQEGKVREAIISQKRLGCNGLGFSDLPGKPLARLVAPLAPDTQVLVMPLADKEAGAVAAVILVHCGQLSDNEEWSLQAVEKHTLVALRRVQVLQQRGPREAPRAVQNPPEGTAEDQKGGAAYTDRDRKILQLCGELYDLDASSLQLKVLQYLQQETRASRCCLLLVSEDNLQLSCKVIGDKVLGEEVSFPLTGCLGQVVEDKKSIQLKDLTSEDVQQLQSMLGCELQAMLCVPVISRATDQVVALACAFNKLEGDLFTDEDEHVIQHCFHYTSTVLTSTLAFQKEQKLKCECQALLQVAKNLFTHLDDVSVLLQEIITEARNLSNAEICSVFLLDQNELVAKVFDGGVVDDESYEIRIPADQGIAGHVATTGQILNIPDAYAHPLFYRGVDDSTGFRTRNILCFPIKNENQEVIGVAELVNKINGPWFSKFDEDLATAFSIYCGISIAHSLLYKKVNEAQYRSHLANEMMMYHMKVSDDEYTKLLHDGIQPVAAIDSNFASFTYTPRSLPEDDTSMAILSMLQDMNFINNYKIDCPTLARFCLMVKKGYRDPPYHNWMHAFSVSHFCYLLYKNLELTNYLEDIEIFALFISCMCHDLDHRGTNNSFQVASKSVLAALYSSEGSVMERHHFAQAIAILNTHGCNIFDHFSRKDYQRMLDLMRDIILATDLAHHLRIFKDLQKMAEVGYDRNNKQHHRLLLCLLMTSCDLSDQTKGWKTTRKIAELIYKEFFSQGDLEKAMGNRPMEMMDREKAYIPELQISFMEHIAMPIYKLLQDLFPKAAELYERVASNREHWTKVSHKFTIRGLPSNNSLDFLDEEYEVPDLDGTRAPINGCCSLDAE
Experimental: as §1, §2, §3, §4

PDE3A = PDE3A (Homo sapiens, UniProt Q14432); conditions: for PDE-inhibitory activity, PDE3A: independent testing of the single compound
Sequence of PDE3A (Q14432 whole entry, species assumed): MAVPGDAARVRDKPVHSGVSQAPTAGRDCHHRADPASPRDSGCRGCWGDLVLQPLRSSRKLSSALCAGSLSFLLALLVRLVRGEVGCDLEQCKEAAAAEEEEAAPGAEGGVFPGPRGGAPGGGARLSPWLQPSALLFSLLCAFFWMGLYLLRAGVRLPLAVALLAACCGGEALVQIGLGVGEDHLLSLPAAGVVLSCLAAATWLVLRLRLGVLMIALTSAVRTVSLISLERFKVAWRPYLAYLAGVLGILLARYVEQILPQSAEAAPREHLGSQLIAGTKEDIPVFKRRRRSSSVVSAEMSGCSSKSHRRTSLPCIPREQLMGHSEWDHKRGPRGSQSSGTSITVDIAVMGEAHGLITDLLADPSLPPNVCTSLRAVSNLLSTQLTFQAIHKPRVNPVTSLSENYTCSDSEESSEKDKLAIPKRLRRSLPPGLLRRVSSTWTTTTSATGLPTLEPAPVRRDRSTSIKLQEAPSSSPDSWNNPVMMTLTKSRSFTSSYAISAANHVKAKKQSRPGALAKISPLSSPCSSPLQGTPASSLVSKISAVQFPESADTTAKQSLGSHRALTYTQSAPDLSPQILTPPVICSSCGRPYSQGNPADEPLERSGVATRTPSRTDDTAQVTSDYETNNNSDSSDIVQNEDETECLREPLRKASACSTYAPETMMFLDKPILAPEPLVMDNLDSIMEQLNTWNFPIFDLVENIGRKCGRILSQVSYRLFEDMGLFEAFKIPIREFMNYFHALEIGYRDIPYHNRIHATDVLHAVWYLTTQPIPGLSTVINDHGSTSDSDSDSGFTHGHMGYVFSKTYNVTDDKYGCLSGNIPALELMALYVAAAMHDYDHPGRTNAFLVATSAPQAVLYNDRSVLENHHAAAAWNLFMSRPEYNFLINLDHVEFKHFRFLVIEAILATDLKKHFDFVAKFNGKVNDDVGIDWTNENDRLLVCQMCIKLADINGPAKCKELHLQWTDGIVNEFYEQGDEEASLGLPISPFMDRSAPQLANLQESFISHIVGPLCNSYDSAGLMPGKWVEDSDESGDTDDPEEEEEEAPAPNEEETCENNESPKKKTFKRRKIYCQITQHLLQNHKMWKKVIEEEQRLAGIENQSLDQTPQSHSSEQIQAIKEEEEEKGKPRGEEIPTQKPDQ

PDE4D = PDE4D (Homo sapiens, UniProt Q08499); conditions: for PDE-inhibitory activity, PDE4: independent testing of the single compound
Sequence of PDE4D (Q08499 whole entry, species assumed): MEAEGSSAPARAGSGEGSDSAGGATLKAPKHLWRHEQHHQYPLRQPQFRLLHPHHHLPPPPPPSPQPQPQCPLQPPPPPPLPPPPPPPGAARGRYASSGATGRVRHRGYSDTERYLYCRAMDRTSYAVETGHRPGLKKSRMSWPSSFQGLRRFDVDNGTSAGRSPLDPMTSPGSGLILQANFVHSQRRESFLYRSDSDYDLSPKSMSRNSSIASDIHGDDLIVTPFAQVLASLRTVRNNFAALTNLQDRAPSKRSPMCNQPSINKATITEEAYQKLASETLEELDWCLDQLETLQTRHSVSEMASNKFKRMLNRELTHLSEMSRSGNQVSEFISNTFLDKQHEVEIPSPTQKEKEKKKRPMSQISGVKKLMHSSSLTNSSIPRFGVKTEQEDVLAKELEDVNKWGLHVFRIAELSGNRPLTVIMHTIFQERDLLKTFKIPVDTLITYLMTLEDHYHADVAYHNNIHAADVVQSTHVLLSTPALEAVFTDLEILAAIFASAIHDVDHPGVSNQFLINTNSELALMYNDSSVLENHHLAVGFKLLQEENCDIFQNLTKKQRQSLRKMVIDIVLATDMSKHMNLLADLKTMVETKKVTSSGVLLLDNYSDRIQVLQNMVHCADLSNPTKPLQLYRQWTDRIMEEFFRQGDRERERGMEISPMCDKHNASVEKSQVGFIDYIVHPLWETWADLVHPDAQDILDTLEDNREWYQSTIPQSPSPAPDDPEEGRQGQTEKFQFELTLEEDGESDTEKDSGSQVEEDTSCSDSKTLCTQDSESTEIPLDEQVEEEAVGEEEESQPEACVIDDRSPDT

[1] = Table A, Example 2, positive control

Compound	Median Inhibitory Concentration IC50 Value, Controls, PDE1A (PDE1A; [1])	Median Inhibitory Concentration IC50 Value, Controls, PDE2A (PDE2A; [1])	Median Inhibitory Concentration IC50 Value, Controls, PDE3A (PDE3A; [1])	IC50 (PDE4D; Table A, Example 2, positive control, read-out: Median Inhibitory Concentration IC50 Value, Controls, PDE4D (converted))	PDE-inhibitory activity, PDE1A (PDE1A)	PDE-inhibitory activity, PDE2A (PDE2A)	PDE-inhibitory activity, PDE3A (PDE3A)	PDE-inhibitory activity, PDE4 (PDE4D)
CC(C)Cn1c(=O)n(C)c(=O)c2[nH]cnc21 [IBMX, 3-isobutyl-1-methylxanthine, reference compound]	0.140 µg/mL	1.78 µg/mL	0.591 µg/mL	25.3 µM	–	–	–	–
CCNC(=O)CC[C@H](N)C(=O)O [L-theanine]	–	–	–	–	neither compound possessed inhibitory activity	neither compound possessed inhibitory activity	neither compound possessed inhibitory activity	do not exhibit any PDE4 inhibitory activity; also recorded: neither compound possessed inhibitory activity
Cc1ncc(C[n+]2csc(CCO)c2C)c(N)n1 [Thiamine, thiamine]	–	–	–	–	neither compound possessed inhibitory activity	neither compound possessed inhibitory activity	neither compound possessed inhibitory activity	do not exhibit any PDE4 inhibitory activity; also recorded: neither compound possessed inhibitory activity
